According to ChEMBL document CHEMBL3792292, “Development of a potent and selective FLT3 kinase inhibitor by systematic expansion of a non-selective fragment-screening hit” (Bioorg Med Chem Lett, 2016):
In brackets after ≈: the same amount, converted by molar mass. Activity calls are given as the source filed them. The calls are words filed in the database; no cut-off is given here.

Key:
Homo sapiens = species on record: Homo sapiens; experiment: Selectivity ratio of IC50 for human N-terminal GST-tagged TRKA cytoplasmic domain (436 to 790 residues) expressed in baculovirus expression system to IC50 for human N-terminal GST-tagged FLT3 cytoplasmic domain (564 to 993 residues) expressed in baculovirus expression system
[1] = biological target: Mitogen-activated protein kinase kinase kinase kinase 4 (Homo sapiens, UniProt O95819); experiment: Inhibition of human N-terminal GST-tagged HGK catalytic domain (1 to 328 residues) expressed in baculovirus expression system using fluorescence labelled moesin-derived peptide substrate by electrophoretic mobility shift assay
Mitogen-activated protein kinase kinase kinase kinase 4, sequence (O95819 whole entry, the tested form may be a part): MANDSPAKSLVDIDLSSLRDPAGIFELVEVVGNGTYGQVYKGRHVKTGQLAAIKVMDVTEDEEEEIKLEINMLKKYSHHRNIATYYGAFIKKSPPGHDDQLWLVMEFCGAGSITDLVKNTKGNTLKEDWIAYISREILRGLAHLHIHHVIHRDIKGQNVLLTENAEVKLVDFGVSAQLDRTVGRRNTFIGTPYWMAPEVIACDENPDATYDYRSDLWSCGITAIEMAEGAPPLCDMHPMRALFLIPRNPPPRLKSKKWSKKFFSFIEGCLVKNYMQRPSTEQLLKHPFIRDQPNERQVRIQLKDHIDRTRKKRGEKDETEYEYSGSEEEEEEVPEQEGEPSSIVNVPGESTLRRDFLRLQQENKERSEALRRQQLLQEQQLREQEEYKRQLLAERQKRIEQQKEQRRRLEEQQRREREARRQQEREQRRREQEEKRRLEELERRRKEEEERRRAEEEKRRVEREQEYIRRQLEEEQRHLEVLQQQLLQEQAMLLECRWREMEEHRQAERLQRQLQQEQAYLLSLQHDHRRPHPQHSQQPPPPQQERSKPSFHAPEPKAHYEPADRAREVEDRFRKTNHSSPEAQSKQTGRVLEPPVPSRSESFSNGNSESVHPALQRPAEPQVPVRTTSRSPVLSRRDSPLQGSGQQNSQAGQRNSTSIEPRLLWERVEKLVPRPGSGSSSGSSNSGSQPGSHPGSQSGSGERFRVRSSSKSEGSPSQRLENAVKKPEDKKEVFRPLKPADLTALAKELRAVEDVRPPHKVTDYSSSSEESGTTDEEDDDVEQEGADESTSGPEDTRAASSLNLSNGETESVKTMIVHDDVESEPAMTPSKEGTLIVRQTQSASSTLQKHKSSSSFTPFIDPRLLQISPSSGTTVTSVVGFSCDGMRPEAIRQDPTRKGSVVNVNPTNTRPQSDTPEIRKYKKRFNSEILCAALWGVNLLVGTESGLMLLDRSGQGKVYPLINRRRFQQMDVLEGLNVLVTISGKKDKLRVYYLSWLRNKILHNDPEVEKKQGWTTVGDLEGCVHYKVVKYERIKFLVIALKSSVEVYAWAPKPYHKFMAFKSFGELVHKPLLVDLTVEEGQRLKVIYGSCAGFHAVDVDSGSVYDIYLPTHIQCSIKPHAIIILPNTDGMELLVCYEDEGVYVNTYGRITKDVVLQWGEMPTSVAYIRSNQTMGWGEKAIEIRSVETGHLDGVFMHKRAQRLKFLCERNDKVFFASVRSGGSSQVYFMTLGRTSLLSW

MV4-11 = experiment: Induction of apoptosis in human MV4-11 cells at 0.17 to 17 uM after 48 hrs by annexin V/propidium iodide staining based flow cytometry; format: functional, cell-based
[2] = biological target: Receptor-type tyrosine-protein kinase FLT3 (Homo sapiens) (UniProt P36888); experiment: Inhibition of FLT3 autophosphorylation at Tyr-596 in human MV4-11 cells after 1.5 hrs by Western blot analysis; format: cell-based
Receptor-type tyrosine-protein kinase FLT3 (Homo sapiens), sequence (P36888 whole entry): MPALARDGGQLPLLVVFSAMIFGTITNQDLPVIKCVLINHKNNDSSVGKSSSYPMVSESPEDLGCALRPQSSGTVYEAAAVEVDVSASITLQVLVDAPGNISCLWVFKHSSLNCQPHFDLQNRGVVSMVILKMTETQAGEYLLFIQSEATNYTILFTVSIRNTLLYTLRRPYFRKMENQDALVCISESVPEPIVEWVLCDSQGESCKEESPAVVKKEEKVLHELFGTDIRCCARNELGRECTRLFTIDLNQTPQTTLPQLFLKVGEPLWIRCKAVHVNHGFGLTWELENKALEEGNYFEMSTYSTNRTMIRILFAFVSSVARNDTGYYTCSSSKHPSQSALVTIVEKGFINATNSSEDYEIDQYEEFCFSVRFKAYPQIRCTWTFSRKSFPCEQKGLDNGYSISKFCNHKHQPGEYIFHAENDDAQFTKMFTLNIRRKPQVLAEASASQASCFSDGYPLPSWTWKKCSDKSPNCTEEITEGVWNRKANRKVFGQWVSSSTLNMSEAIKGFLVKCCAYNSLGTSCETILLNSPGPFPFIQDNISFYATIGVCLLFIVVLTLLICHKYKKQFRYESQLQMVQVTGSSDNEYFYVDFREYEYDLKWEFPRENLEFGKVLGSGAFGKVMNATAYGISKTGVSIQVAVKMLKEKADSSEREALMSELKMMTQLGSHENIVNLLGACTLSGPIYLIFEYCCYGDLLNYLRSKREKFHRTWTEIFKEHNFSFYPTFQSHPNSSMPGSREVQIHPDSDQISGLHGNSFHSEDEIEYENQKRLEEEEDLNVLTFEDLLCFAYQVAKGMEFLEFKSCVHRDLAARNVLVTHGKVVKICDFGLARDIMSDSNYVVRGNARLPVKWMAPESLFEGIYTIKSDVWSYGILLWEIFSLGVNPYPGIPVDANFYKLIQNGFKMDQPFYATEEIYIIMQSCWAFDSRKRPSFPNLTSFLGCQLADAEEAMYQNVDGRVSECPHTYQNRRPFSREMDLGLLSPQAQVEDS

[3] = Aqueous solubility in pH 7.4 PBS buffer at 200 uM after 24 hrs by UV-visible HPLC based shake flask method; format: physicochemical; details: PBS buffer pH 7.4, pH 7.4
CYP2D6 = CYP2D6 (Homo sapiens, UniProt P10635); experiment: Inhibition of human CYP2D6 at 10 uM relative to control; format: ADME
CYP2D6, sequence (P10635 whole entry): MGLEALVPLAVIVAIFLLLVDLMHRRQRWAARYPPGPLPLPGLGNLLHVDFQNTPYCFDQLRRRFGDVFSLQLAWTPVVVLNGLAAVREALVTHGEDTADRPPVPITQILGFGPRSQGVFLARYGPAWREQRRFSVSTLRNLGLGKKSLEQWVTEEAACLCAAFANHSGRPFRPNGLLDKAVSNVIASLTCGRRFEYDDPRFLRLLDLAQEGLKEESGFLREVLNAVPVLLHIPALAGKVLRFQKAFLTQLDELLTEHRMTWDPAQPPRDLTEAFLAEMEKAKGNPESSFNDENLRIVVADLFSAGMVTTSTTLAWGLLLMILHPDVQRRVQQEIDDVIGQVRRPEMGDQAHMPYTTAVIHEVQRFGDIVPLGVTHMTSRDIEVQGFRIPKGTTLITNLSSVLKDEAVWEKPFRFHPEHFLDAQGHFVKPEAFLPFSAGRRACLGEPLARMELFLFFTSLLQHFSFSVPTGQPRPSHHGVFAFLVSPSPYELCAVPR

[4] = Permeability from apical to basolateral side in human Caco2 cells at 10 uM after 60 mins by HPLC-MS/MS analysis; format: ADME, cell-based; details: Caco-2, read-out: permeability

O=C(Nc1ccc(CN2CCN(c3ccccc3)CC2)cc1)c1n[nH]c2ccccc12
Ratio IC50 (Homo sapiens): 15 | IC50 [1]: 410 nM | Activity (MV4-11): Active | inhibition [2]: Dose-dependent effect | solubility thermodynamic at 24 h, 200 µM [3]: 3 µM (≈ 1.23 µg/mL) | inhibition at 10 µM (CYP2D6): 62% | Papp A→B at 1 h, 10 µM [4]: 4 ×10⁻⁶ cm/s
